Read-outs that look alike come from different tables or passages of the source.
Legend:
Neurokinin NK1 = Neurokinin NK1 (Homo sapiens, UniProt P25103); assay: CEREP binding profile: NK1
Excerpt: (§1) The CEREP High-throughput profile consists of a broad collection of 80 transmembrane and soluble receptors, ion channels and G-Protein coupled receptors.

Muscarinic M2 = Muscarinic M2 (Homo sapiens, UniProt P08172); assay: CEREP binding profile: M2
Excerpt: as §1

[1] = target: T1, Non-steroid nuclear receptors PPAR gamma (Homo sapiens, UniProt P37231); assay: CEREP binding profile: PPAR gamma
T1 construct: CEREP
Excerpt: as §1

Bombesin BB = assay: CEREP binding profile: BB; conditions: 10 μM
Excerpt: as §1

Serotonin 5-HT1B = target: T2, Serotonin 5-HT1B (Rattus norvegicus, UniProt P28564); assay: CEREP binding profile: 5-HT1B
T2 construct: CEREP (contract panel)
Excerpt: as §1

Angiotensin-II AT2 = target: T3, Angiotensin-II AT2 (Homo sapiens, UniProt P50052); assay: CEREP binding profile: AT2
T3 construct: CEREP
Excerpt: as §1

Muscarinic M3 = Muscarinic M3 (Homo sapiens, UniProt P20309); assay: CEREP binding profile: M3
Excerpt: as §1

Dopamine D2S = target: T4, Dopamine D2S (Homo sapiens, UniProt P14416); assay: CEREP binding profile: D2S
T4 construct: CEREP
Excerpt: as §1

Galanin GAL1 = Galanin GAL1 (Homo sapiens, UniProt P47211); assay: CEREP binding profile: GAL1
Excerpt: as §1

Serotonin 5-HT2C = target: T5, Serotonin 5-HT2C (Homo sapiens, UniProt P28335); assay: CEREP binding profile: 5-HT2C
T5 construct: CEREP (contract panel)
Excerpt: as §1

Glutamate PCP = assay: CEREP binding profile: PCP; conditions: 10 μM
Excerpt: as §1

[2] = target: PXR (non-steroid nuclear receptor) (Homo sapiens, UniProt O75469); assay: in vitro
Excerpt: as §1

K+ channels KV = assay: CEREP binding profile: KV; conditions: 10 μM
Excerpt: as §1

Somatostatin sst = assay: CEREP binding profile: sst; conditions: 10 μM
Excerpt: as §1

Muscarinic M4 = Muscarinic M4 (Homo sapiens, UniProt P08173); assay: CEREP binding profile: M4
Excerpt: as §1

Melanocortin MC4 = Melanocortin MC4 (Homo sapiens, UniProt P32245); assay: CEREP binding profile: MC4
Excerpt: as §1

Melatonin MT1 (ML1A) = Melatonin MT1 (ML1A) (Homo sapiens, UniProt P48039); assay: CEREP binding profile: MT1
Excerpt: as §1

[3] = target: T6, Transporters Norepinephrine (Homo sapiens, UniProt P23975); assay: CEREP binding profile: norepinephrine transporter
T6 construct: CEREP (contract panel)
Excerpt: as §1

Neurokinin NK3 = Neurokinin NK3 (Homo sapiens, UniProt P29371); assay: CEREP binding profile: NK3
Excerpt: as §1

[4] = target: T7, Cholecystokinin CCK1 (CCKA) (Homo sapiens, UniProt P32238); assay: CEREP binding profile: CCK1
T7 construct: CEREP
Excerpt: as §1

Prostanoid IP (PGI2) = Prostanoid IP (PGI2) (Homo sapiens, UniProt P43119); assay: CEREP binding profile: IP
Excerpt: as §1

Dopamine D1 = target: T8, Dopamine D1 (Homo sapiens, UniProt P21728); assay: CEREP binding profile: D1
T8 construct: CEREP
Excerpt: as §1

Purinergic P2Y = assay: CEREP binding profile: P2Y; conditions: 10 μM
Excerpt: as §1

Transporters Dopamine = target: T9, Transporters Dopamine (Homo sapiens, UniProt Q01959); assay: CEREP binding profile: dopamine transporter
T9 construct: CEREP (contract panel)
Excerpt: as §1

Purinergic channels P2X = assay: CEREP binding profile: P2X; conditions: 10 μM
Excerpt: as §1

Histamine H2 = Histamine H2 (Homo sapiens, UniProt P25021); assay: CEREP binding profile: H2
Excerpt: as §1

[5] = target: Opioid and opioid-like kappa (KOP) (Rattus norvegicus, UniProt P34975); assay: CEREP binding profile: kappa; conditions: 10 μM
Excerpt: as §1

Neuropetide Y N1 = Neuropetide Y N1 (Homo sapiens, UniProt P25929); assay: CEREP binding profile: N1
Excerpt: as §1

Growth factors PDGF = assay: CEREP binding profile: PDGF; conditions: 10 μM
Excerpt: as §1

Na+ channels Na+-site 2 = assay: CEREP binding profile: Na+-site 2; conditions: 10 μM
Excerpt: as §1

Muscarinic M1 = Muscarinic M1 (Homo sapiens, UniProt P11229); assay: CEREP binding profile: M1
Excerpt: as §1

Adenosine A3 = target: T10, Adenosine A3 (Homo sapiens, UniProt P0DMS8); assay: CEREP binding profile: A3
T10 construct: CEREP
Excerpt: as §1

GABA Cl- channel = assay: CEREP binding profile: Cl- channel; conditions: 10 μM
Excerpt: as §1

Adrenergic beta2 = target: T11, Adrenergic beta2 (Homo sapiens, UniProt P07550); assay: CEREP binding profile: beta2
T11 construct: CEREP
Excerpt: as §1

[6] = target: T12, Cholecystokinin CCK2 (CCKB) (Homo sapiens, UniProt P32239); assay: CEREP binding profile: CCK2
T12 construct: CEREP
Excerpt: as §1

Serotonin 5-HT1A = target: T13, Serotonin 5-HT1A (Homo sapiens, UniProt P08908); assay: CEREP binding profile: 5-HT1A
T13 construct: CEREP (contract panel)
Excerpt: as §1

Endothelin ETA = target: T14, Endothelin ETA (Homo sapiens, UniProt P25101); assay: CEREP binding profile: ETA
T14 construct: CEREP
Excerpt: as §1

[7] = target: T15, Benzodiazepine BZD (periph) (Rattus norvegicus, UniProt P16257); assay: CEREP binding profile: BZD (periph)
T15 construct: CEREP (contract panel)
Excerpt: as §1

Serotonin 5-HT7 = target: T16, Serotonin 5-HT7 (Homo sapiens, UniProt P34969); assay: CEREP binding profile: 5-HT7
T16 construct: CEREP (contract panel)
Excerpt: as §1

Serotonin 5-HT2B = target: T17, Serotonin 5-HT2B (Homo sapiens, UniProt P41595); assay: CEREP binding profile: 5-HT2B
T17 construct: CEREP (contract panel)
Excerpt: as §1

GABA = assay: CEREP binding profile: GABA; conditions: 10 μM
Excerpt: as §1

Ca2+ channels Ca2+-L = assay: CEREP binding profile: Ca2+-L; conditions: 10 μM
Excerpt: as §1

T11 sequence (P07550 whole entry): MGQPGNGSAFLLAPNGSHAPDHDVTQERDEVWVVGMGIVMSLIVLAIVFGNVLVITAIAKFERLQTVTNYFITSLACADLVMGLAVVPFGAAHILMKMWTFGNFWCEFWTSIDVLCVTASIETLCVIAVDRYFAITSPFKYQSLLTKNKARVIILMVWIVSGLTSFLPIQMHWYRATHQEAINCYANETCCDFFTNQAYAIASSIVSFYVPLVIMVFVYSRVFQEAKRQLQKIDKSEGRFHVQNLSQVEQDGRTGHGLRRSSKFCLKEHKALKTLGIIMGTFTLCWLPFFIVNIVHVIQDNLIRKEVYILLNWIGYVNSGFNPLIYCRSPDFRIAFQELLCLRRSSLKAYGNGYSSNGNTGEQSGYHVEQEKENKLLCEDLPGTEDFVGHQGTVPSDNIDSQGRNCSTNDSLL
T3 sequence (P50052 whole entry): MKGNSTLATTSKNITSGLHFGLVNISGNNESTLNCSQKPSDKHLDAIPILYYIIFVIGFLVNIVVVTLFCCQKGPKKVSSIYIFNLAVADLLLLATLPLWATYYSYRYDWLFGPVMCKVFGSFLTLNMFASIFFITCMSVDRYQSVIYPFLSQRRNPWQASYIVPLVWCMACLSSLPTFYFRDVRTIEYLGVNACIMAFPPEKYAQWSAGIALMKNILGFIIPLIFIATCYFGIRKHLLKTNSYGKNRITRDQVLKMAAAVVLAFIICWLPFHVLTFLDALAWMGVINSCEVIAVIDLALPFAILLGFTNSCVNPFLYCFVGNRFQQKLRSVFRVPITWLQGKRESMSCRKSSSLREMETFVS
T1 sequence (P37231 whole entry): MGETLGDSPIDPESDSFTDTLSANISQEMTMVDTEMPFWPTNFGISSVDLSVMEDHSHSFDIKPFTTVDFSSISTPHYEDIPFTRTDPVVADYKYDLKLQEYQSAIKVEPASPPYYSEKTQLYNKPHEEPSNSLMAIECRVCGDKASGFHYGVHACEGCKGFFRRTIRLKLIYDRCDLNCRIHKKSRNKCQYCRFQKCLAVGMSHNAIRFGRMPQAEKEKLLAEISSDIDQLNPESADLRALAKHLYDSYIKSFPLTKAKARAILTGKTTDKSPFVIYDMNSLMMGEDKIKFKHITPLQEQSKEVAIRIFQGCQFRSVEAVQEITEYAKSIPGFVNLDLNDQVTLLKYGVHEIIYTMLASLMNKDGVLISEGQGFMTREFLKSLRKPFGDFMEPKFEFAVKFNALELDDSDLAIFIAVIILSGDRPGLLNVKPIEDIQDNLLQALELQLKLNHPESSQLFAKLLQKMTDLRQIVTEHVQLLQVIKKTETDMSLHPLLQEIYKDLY
Melatonin MT1 (ML1A), sequence (P48039 whole entry): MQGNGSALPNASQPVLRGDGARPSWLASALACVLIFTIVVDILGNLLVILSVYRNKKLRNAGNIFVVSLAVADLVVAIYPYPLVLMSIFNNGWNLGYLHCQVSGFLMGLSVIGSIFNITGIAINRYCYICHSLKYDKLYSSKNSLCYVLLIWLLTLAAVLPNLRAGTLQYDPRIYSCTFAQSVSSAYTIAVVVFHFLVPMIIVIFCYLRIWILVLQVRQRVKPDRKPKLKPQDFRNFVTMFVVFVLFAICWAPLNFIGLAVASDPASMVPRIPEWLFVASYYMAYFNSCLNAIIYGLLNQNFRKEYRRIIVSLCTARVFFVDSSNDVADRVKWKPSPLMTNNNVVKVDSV
T5 sequence (P28335 33-458): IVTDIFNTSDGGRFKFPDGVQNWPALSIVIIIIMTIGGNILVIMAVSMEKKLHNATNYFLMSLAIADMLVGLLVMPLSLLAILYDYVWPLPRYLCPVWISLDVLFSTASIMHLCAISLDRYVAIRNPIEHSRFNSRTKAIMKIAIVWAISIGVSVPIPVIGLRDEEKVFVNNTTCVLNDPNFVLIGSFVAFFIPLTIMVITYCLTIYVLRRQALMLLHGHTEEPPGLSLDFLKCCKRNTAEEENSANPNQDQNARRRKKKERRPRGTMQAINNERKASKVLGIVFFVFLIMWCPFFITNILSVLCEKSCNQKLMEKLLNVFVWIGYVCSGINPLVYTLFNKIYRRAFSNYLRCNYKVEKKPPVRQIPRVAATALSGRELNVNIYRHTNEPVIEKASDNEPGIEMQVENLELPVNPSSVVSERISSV
Prostanoid IP (PGI2), sequence (P43119 whole entry): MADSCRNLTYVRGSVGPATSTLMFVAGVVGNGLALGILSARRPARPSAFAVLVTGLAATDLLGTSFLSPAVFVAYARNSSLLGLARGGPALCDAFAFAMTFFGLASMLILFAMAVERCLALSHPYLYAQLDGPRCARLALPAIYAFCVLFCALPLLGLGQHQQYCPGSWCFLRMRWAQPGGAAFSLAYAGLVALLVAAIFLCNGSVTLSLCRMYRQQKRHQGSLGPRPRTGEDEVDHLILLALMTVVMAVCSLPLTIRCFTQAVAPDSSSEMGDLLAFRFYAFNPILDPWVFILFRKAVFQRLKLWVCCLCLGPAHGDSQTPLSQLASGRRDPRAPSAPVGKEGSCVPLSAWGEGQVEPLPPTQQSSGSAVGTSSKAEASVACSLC
Neuropetide Y N1, sequence (P25929 whole entry): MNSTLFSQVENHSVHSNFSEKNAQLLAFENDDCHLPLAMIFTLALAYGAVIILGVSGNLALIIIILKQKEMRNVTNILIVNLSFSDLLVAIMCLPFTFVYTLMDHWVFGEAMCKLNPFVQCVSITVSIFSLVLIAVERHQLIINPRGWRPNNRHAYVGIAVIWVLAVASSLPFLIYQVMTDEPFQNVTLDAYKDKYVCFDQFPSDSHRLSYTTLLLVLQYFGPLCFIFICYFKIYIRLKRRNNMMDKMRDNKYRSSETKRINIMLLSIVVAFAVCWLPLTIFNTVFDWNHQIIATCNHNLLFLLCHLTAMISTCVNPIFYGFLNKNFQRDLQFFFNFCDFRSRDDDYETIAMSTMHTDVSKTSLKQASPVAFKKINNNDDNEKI
T8 sequence (P21728 whole entry): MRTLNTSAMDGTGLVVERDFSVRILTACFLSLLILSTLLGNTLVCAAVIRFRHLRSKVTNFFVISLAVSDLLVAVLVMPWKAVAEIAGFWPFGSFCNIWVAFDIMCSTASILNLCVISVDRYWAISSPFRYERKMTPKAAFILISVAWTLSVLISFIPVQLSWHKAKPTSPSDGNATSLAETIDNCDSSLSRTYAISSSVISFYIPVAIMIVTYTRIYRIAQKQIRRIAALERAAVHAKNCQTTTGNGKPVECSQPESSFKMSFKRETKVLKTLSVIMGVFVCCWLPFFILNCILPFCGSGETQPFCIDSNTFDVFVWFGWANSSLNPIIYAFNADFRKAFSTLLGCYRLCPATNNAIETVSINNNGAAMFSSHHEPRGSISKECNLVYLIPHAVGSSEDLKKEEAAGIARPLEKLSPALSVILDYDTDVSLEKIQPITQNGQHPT
Muscarinic M3, sequence (P20309 whole entry): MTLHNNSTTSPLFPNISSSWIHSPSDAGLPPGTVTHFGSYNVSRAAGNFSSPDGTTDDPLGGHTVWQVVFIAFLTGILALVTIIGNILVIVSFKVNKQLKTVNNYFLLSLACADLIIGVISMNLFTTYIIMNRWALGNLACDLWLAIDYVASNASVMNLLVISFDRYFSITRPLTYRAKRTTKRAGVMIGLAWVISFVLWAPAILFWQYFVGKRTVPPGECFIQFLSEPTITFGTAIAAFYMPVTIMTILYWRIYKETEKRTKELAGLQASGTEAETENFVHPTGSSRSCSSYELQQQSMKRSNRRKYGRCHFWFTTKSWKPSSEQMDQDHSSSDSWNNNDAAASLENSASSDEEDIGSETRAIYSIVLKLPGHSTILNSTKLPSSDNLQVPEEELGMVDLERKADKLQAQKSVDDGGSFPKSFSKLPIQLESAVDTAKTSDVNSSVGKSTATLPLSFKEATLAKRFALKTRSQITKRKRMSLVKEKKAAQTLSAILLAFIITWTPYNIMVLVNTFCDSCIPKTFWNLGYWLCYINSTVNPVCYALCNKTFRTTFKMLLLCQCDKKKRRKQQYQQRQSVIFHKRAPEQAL
T6 sequence (P23975 whole entry): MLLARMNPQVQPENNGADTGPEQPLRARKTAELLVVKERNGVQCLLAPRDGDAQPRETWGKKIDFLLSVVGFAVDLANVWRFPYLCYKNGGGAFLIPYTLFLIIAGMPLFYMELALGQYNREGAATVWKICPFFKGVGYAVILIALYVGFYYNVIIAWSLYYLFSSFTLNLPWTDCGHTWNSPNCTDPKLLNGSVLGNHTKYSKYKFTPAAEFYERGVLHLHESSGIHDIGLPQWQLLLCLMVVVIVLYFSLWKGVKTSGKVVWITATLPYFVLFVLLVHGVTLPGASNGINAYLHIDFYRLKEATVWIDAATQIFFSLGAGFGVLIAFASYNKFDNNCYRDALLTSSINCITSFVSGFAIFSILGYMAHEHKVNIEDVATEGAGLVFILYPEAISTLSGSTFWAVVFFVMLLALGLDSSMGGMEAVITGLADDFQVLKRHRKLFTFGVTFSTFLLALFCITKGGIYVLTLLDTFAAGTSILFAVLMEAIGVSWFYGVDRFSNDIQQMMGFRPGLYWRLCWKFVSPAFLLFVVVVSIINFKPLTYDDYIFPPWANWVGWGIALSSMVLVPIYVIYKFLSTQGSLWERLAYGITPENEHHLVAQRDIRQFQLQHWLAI
Neurokinin NK3, sequence (P29371 whole entry): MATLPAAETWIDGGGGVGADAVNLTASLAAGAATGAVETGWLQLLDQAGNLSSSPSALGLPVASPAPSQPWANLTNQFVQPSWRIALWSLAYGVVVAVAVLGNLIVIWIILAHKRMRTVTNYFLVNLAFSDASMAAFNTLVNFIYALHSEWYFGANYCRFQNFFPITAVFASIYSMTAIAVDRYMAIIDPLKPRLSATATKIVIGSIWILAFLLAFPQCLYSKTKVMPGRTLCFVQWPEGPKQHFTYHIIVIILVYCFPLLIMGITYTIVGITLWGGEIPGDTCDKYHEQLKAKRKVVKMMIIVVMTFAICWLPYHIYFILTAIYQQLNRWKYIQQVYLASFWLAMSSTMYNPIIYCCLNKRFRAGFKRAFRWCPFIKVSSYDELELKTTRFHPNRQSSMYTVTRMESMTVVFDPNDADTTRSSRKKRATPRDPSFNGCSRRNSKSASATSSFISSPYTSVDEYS

CC(=O)[C@@]1(C)CC[C@H]2[C@@H]3CC=C4C[C@@H](OCc5ccccc5)CC[C@]4(C)[C@H]3CC[C@@]21C [3Bn17MeP, 3β-benzyloxy, 17α-methyl-pregn-5-en-20-one]
inhibition at 10 µM (Neurokinin NK1): 8%
inhibition at 10 µM (Muscarinic M2): -17%
inhibition at 10 µM [1]: -12%
% Inhibition (Bombesin BB): −6%
% Inhibition (Serotonin 5-HT1B; 10 μM): −15%
inhibition at 10 µM (Angiotensin-II AT2): -5%
inhibition at 10 µM (Muscarinic M3): 16%
% Inhibition (Dopamine D2S; 10 μM): 6%
inhibition at 10 µM (Galanin GAL1): -26%
% Inhibition (Serotonin 5-HT2C; 10 μM): 10%
Inhibition % (Glutamate PCP): 5%
inhibition at 10 µM [2]: -8%
% Inhibition (K+ channels KV): −15%
% Inhibition (Somatostatin sst): −6%
inhibition at 10 µM (Muscarinic M4): 2%
inhibition at 10 µM (Melanocortin MC4): -10%
inhibition at 10 µM (Melatonin MT1 (ML1A)): -8%
inhibition at 10 µM [3]: -1%
inhibition at 10 µM (Neurokinin NK3): 7%
inhibition at 10 µM [4]: 2%
inhibition at 10 µM (Prostanoid IP (PGI2)): 0%
% Inhibition (Dopamine D1; 10 μM): −10%
% Inhibition (Purinergic P2Y): −2%
inhibition at 10 µM (Transporters Dopamine): -23%
Inhibition % (Purinergic channels P2X): 8%
inhibition at 10 µM (Histamine H2): 12%
% Inhibition [5]: −17%
inhibition at 10 µM (Neuropetide Y N1): -32%
Inhibition % (Growth factors PDGF): −13%
% Inhibition (Na+ channels Na+-site 2): −12%
inhibition at 10 µM (Muscarinic M1): -25%
inhibition at 10 µM (Adenosine A3): 1%
Inhibition % (GABA Cl- channel): 1%
% Inhibition (Adrenergic beta2; 10 μM): −4%
inhibition at 10 µM [6]: -21%
% Inhibition (Serotonin 5-HT1A; 10 μM): 25%
inhibition at 10 µM (Endothelin ETA): 1%
inhibition at 10 µM [7]: 1%
% Inhibition (Serotonin 5-HT7; 10 μM): 8%
% Inhibition (Serotonin 5-HT2B; 10 μM): 16%
Inhibition % (GABA): 10%
% Inhibition (Ca2+ channels Ca2+-L): 12%

CC(=O)[C@H]1CC[C@H]2[C@@H]3CC=C4C[C@@H](O)CC[C@]4(C)[C@H]3CC[C@]12C [pregnenolone, reference compound]
inhibition at 10 µM (Neurokinin NK1): 17%
inhibition at 10 µM (Muscarinic M2; M2, 10 μM, read-out: % Inhibition): -4%
inhibition at 10 µM [1]: 4%
% Inhibition (Bombesin BB): −18%
inhibition at 10 µM (Serotonin 5-HT1B): -28%
inhibition at 10 µM (Angiotensin-II AT2): -18%
inhibition at 10 µM (Muscarinic M3; M3, 10 μM, read-out: % Inhibition): 2%
inhibition at 10 µM (Dopamine D2S): 5%
inhibition at 10 µM (Galanin GAL1): -16%
inhibition at 10 µM (Serotonin 5-HT2C): -9%
Inhibition % (Glutamate PCP): 5%
inhibition at 10 µM ([2]; PXR receptor binding assay (ligand displacement)): 15%
% Inhibition (K+ channels KV): −23%
% Inhibition (Somatostatin sst): −8%
inhibition at 10 µM (Muscarinic M4; M4, 10 μM, read-out: % Inhibition): -4%
inhibition at 10 µM (Melanocortin MC4): -15%
inhibition at 10 µM (Melatonin MT1 (ML1A)): 26%
inhibition at 10 µM ([3]; norepinephrine transporter, 10 μM, read-out: % Inhibition): -12%
inhibition at 10 µM (Neurokinin NK3): 11%
inhibition at 10 µM [4]: -30%
inhibition at 10 µM (Prostanoid IP (PGI2)): -12%
inhibition at 10 µM (Dopamine D1): -8%
% Inhibition (Purinergic P2Y): −3%
inhibition at 10 µM (Transporters Dopamine; dopamine transporter, 10 μM, read-out: % Inhibition): -12%
Inhibition % (Purinergic channels P2X): 13%
inhibition at 10 µM (Histamine H2): 9%
% Inhibition [5]: 38%
inhibition at 10 µM (Neuropetide Y N1): -11%
Inhibition % (Growth factors PDGF): −15%
% Inhibition (Na+ channels Na+-site 2): 23%
inhibition at 10 µM (Muscarinic M1; M1, 10 μM, read-out: % Inhibition): -14%
inhibition at 10 µM (Adenosine A3): 11%
Inhibition % (GABA Cl- channel): 29%
inhibition at 10 µM (Adrenergic beta2): -5%
inhibition at 10 µM [6]: -38%
inhibition at 10 µM (Serotonin 5-HT1A): 12%
inhibition at 10 µM (Endothelin ETA): -3%
Inhibition % ([7]; BZD (periph), 10 μM): 42%
inhibition at 10 µM ([7]; BZD (periph), 10 μM, read-out: Inhibition %): > 40%
inhibition at 10 µM (Serotonin 5-HT7): 11%
inhibition at 10 µM (Serotonin 5-HT2B): -38%
Inhibition % (GABA): 10%
% Inhibition (Ca2+ channels Ca2+-L): −19%

— patent US12583884B2, “3beta-(benzyloxy)-17alpha-methyl-pregn-5-en-20-one for use in the treatment of cognitive disorders” (AELIS FARMA, priority 2018, dated 2026)
